We go through two molecules from patent US20130089601A1, “METHOD FOR TREATING ATHEROSCLEROSIS” (KAOHSIUNG MEDICAL UNIVERSITY, priority 2009, published 2013).

The subject of one data set is endogenous microRNA-195. Put plainly: Endogenous microRNA-195 in VSMC by quantitative real-time PCR, normalized to U44. In kind it is cell-based, human. The note with it: ox-LDL and simvastatin 1 nM for 24 hours. As for the experimental part: Quantitative real-time PCR was performed in an ABI PRIZM 7500 sequence detection system in triplicates. The typical amplification program was carried out in a 20 μl reaction with a primer at a final concentration of 300 nM and probes of 200 nM. Serial dilutions of the control cDNA for generating standard curves ran in duplicate. Real-time PCR results were analyzed using ABI PRISM 7500 SDS software. Relative differences of microRNAs were quantified using the […] method. For graphical presentation, the 2^−ΔΔCt transformation was used according to the ABI user bulletin version #2. Expression values were depicted relatively to the value at baseline which was the earliest time point present in all the experiments.
For orientation: In qPCR the cycle at which signal appears reflects the starting amount.

The test system of the next data set is VSMC cells. Put plainly: Chemotactic migration of VSMC (Transwell). In kind it is cell-based, human. The settings on record: 100 nM for 24 hours, ox-LDL 40 μg/ml. As for the experimental part: Chemotactic migration is another characteristic of atherosclerosis and can be used as another line of evidence of atherosclerotic change for the cultured VSMC cells. This experiment was assayed by using a microchemotactic chamber and polycarbonate filters with pores of […] in diameter (Transwell, Millipore). After incubated with microRNA-195 (Pre-miR miRNA, hsa-miR-195 (product ID PM10827), Ambion Inc.) (100 nM) or an inhibitor (100 nM) for 24 hours, the VSMC cells were trypsinized and suspended with a serum free medium. A volume (300 μl) of a 1×10^4 cell suspension was placed in the upper chamber, the medium containing ox-LDL (40 μg/ml, each) was placed in the lower and upper chamber. The cell suspension was incubated at a temperature of 37° C. under 5% CO2 in air for 24 hours. After incubation, the VSMC cells on the upper side of the filter were scraped off, and the cells that had directly migrated to the lower side of the filter were trypsinized. The cells were fixed with methanol and stained with a Giemsa solution (Merck). Quantification of chemotactic migration was performed using the hemocytometer.

`CCC(C)(C)C(=O)O[C@H]1C[C@@H](C)C=C2C=C[C@H](C)[C@H](CC[C@@H]3C[C@@H](O)CC(=O)O3)[C@H]21` [simvastatin]: the “endogenous microRNA-195 decrease versus ox-LDL-stimulated cells” value in the data set with endogenous microRNA-195 is > 0.68 fold. Consider “microRNA-195 inhibitor: 5′-GCCAATATTTCTGTGCTGCTA-3′ (SEQ ID NO: 6), Ambion; used to specifically bind to and inhibit endogenous microRNA-195 (listed as DNA, chemistry not given here) [reference compound]”, for which the “chemotactic migration, percentage of migrated cells compared to control medium cells” value in the data set with VSMC cells was 233.7%.
